Experimental data published in ChEMBL document CHEMBL2439977, “Discovery of novel bacterial RNA polymerase inhibitors: pharmacophore-based virtual screening and hit optimization” (J Med Chem, 2013).
Values after ≈ are worked out from the molar mass of the structure shown. Active and inactive are the calls of the source. No cut-off for these calls is given here.

What was measured:
[1] = system: Escherichia coli; assay: Antibacterial activity against Escherichia coli expressing TolC mutant; assay type: functional
[2] = system: Escherichia coli; assay: Inhibition of Escherichia coli RNA polymerase at 200 uM by transcription assay
[3] = Inhibition of Escherichia coli RNA polymerase core enzyme by transcription assay
[4] = system: Escherichia coli; assay: Ratio of IC50 for Escherichia coli RNA polymerase core enzyme to IC50 for Escherichia coli RNA polymerase holo enzyme
[5] = Inhibition of Escherichia coli RNA polymerase by transcription assay
[6] = Inhibition of Escherichia coli RNA polymerase-RNA polymerase sigma factor RpoD interaction by ELISA
[7] = Inhibition of Escherichia coli RNA polymerase holo enzyme by transcription assay
[8] = system: Escherichia coli; assay: Inhibition of Escherichia coli RNA polymerase-RNA polymerase sigma factor RpoD interaction at 50 uM by ELISA
[9] = system: Staphylococcus aureus; assay: Antibacterial activity against Staphylococcus aureus; assay type: functional
[10] = system: Escherichia coli; assay: Induction of resistant frequency in Escherichia coli expressing TolC mutant at 2 times MIC treated for every 3 days; assay type: functional, organism-based
[11] = system: Escherichia coli; assay: Antibacterial activity against Escherichia coli K-12; assay type: functional
[12] = system: Pseudomonas aeruginosa; assay: Antibacterial activity against Pseudomonas aeruginosa PAO1; assay type: functional
[13] = system: Bacillus subtilis; assay: Antibacterial activity against Bacillus subtilis; assay type: functional
[14] = system: Escherichia coli; assay: Inhibition of RNA synthesis in Escherichia coli expressing TolC mutant at 4 times MIC after 45 mins; assay type: functional, organism-based
[15] = system: Escherichia coli; assay: Inhibition of protein synthesis in Escherichia coli expressing TolC mutant at 4 times MIC after 45 mins; assay type: functional, organism-based
[16] = system: Escherichia coli; assay: Inhibition of lipid synthesis in Escherichia coli expressing TolC mutant at 4 times MIC after 45 mins; assay type: functional, organism-based
[17] = system: Escherichia coli; assay: Inhibition of DNA synthesis in Escherichia coli expressing TolC mutant at 4 times MIC after 45 mins; assay type: functional, organism-based

With `O=C(Nc1ccccc1C(=O)O)c1cccc(Oc2ccccc2)c1` as the compound, how does the MIC [1] read?
Its MIC is 9 µg/mL (≈ 27 µM).

And the inhibition [2]?
Its inhibition is 23%.

For `O=C(Nc1cc(Cl)ccc1C(=O)O)c1ccc(-c2ccccc2)c(Oc2ccccc2)c1`, which IC50 [3] is on record?
Its IC50 is 12 µM.

What about the Ratio IC50 [4] of the same compound?
The Ratio IC50 was 2.9.

And the IC50 ([5]; read-out: IC50)?
Its IC50 is 9 µM.

And the MIC [1]?
Its MIC is over 25 µg/mL.

What about the IC50 [6] of the same compound?
The IC50 was 33 µM.

What about the IC50 [7] of the same compound?
Its IC50 is 7 µM.

Which IC50 ([5]; read-out: IC50) does the source give for `O=C(Nc1ccc(Br)cc1C(=O)O)c1cccc(Cc2ccccc2)c1` here?
The IC50 was 37 µM.

And the MIC [1]?
The MIC was 2 µg/mL (≈ 4.87 µM).

For `O=C(Nc1cccc(Cl)c1C(=O)O)c1ccc(-c2ccccc2)cc1`, which IC50 [5] is on record?
The IC50 was “Not Active”.

What about the MIC [1] of the same compound?
Its MIC is 57 µg/mL (≈ 162 µM).

And the inhibition [8]?
The inhibition was under 10%.

With `O=C(Nc1cc(F)ccc1C(=O)O)c1ccc(-c2ccccc2)cc1` as the compound, how does the IC50 ([5]; read-out: IC50) read?
The IC50 was 98 µM.

What about the MIC [1] of the same compound?
The MIC was 4 µg/mL (≈ 11.9 µM).

With `O=C(Nc1ccc(Br)cc1C(=O)O)c1cccc(Oc2ccccc2)c1` as the compound, how does the IC50 ([5]; read-out: IC50) read?
The IC50 was 34 µM.

What about the MIC [1] of the same compound?
Its MIC is 3 µg/mL (≈ 7.28 µM).

Which results are given for `Cc1ccc(NC(=O)c2ccc(-c3ccccc3)cc2)c(C(=O)O)c1`?
IC50 ([5]; read-out: IC50): 139 µM; MIC [1]: 7 µg/mL (≈ 21.1 µM)

For `O=C(Nc1cc(Br)ccc1C(=O)O)c1ccc(-c2ccccc2)cc1`, which IC50 [3] is on record?
The IC50 was 39 µM.

And the Ratio IC50 [4]?
The Ratio IC50 was 3.

What about the IC50 ([5]; read-out: IC50) of the same compound?
The IC50 was 28 µM.

What about the MIC [1] of the same compound?
Its MIC is 2 µg/mL (≈ 5.05 µM).

And the IC50 [6]?
The IC50 was 68 µM.

And the IC50 [7]?
The IC50 was 27 µM.

With `O=C(Nc1ccc(Cl)cc1C(=O)O)c1ccc(-c2ccccc2)cc1` as the compound, how does the IC50 ([5]; read-out: IC50) read?
Its IC50 is 46 µM.

What about the MIC [1] of the same compound?
Its MIC is 2 µg/mL (≈ 5.69 µM).

Which results are given for `O=C(Nc1ccc(C(F)(F)F)cc1C(=O)O)c1ccc(-c2ccccc2)cc1`?
MIC [9]: 5 µg/mL (≈ 13 µM); Activity [10]: Active; MIC [11]: > 50 µg/mL; IC50 [3]: 67 µM; Ratio IC50 [4]: 4; IC50 ([5]; read-out: IC50): 28 µM; MIC [12]: > 50 µg/mL; MIC [13]: 4 µg/mL (≈ 10.4 µM); MIC [1]: 2 µg/mL (≈ 5.19 µM); IC50 [6]: 60 µM; IC50 [7]: 28 µM

Which MIC [9] does the source give for `O=C(Nc1cc(Br)ccc1C(=O)O)c1cccc(Oc2ccccc2)c1` here?
Its MIC is 8 µg/mL (≈ 19.4 µM).

And the MIC [11]?
Its MIC is over 25 µg/mL.

What about the IC50 ([5]; read-out: IC50) of the same compound?
Its IC50 is 34 µM.

And the MIC [12]?
The MIC was over 25 µg/mL.

And the MIC [13]?
Its MIC is 3 µg/mL (≈ 7.28 µM).

What about the MIC [1] of the same compound?
The MIC was 3 µg/mL (≈ 7.28 µM).

With `O=C(Nc1ccc(F)cc1C(=O)O)c1cccc(Oc2ccccc2)c1` as the compound, how does the MIC [9] read?
Its MIC is 48 µg/mL (≈ 137 µM).

And the MIC [11]?
Its MIC is over 100 µg/mL.

What about the IC50 ([5]; read-out: IC50) of the same compound?
Its IC50 is 98 µM.

What about the MIC [12] of the same compound?
Its MIC is over 100 µg/mL.

What about the MIC [13] of the same compound?
Its MIC is 4 µg/mL (≈ 11.4 µM).

What about the MIC [1] of the same compound?
Its MIC is 5 µg/mL (≈ 14.2 µM).

Which IC50 [3] does the source give for `C=CCN1C(=O)/C(=C/c2ccc(-c3cccc(C(=O)O)c3)o2)SC1=S` here?
Its IC50 is 57 µM.

And the Ratio IC50 [4]?
Its Ratio IC50 is 2.6.

And the IC50 [6]?
Its IC50 is 30 µM.

What about the IC50 [7] of the same compound?
The IC50 was 38 µM.

Which MIC [9] does the source give for `O=C(Nc1cc(Cl)ccc1C(=O)O)c1ccc(-c2ccccc2)cc1` here?
The MIC was 24 µg/mL (≈ 68.2 µM).

What about the MIC [11] of the same compound?
Its MIC is over 50 µg/mL.

And the IC50 ([5]; read-out: IC50)?
The IC50 was 37 µM.

And the MIC [12]?
Its MIC is over 50 µg/mL.

And the MIC [13]?
The MIC was 2 µg/mL (≈ 5.69 µM).

And the MIC [1]?
The MIC was 3 µg/mL (≈ 8.53 µM).

With `O=C(Nc1ccc(-c2ccccc2)cc1C(=O)O)c1cccc(Oc2ccccc2)c1` as the compound, how does the MIC [9] read?
The MIC was 6 µg/mL (≈ 14.7 µM).

And the Activity [10]?
The Activity was “Active”.

What about the MIC [11] of the same compound?
Its MIC is over 25 µg/mL.

And the IC50 [3]?
The IC50 was 27 µM.

What about the inhibition [14] of the same compound?
The inhibition was “inactive”.

And the Ratio IC50 [4]?
The Ratio IC50 was 2.8.

And the inhibition [15]?
Its inhibition is “inactive”.

What about the IC50 ([5]; read-out: IC50) of the same compound?
The IC50 was 13 µM.

What about the MIC [12] of the same compound?
The MIC was over 25 µg/mL.

What about the MIC [13] of the same compound?
Its MIC is 3 µg/mL (≈ 7.33 µM).

And the inhibition [16]?
Its inhibition is “inactive”.

What about the inhibition [17] of the same compound?
Its inhibition is “inactive”.

And the MIC [1]?
The MIC was 2 µg/mL (≈ 4.88 µM).

What about the IC50 [6] of the same compound?
The IC50 was 47 µM.

What about the IC50 [7] of the same compound?
The IC50 was 16 µM.

With `O=C(Nc1cc(Cl)ccc1C(=O)O)c1cccc(Oc2ccccc2)c1` as the compound, how does the MIC [9] read?
Its MIC is 14 µg/mL (≈ 38.1 µM).

What about the MIC [11] of the same compound?
The MIC was over 50 µg/mL.

What about the IC50 ([5]; read-out: IC50) of the same compound?
Its IC50 is 44 µM.

What about the MIC [12] of the same compound?
Its MIC is over 50 µg/mL.

And the MIC [13]?
Its MIC is 3 µg/mL (≈ 8.16 µM).

And the MIC [1]?
The MIC was 3 µg/mL (≈ 8.16 µM).

With `CCCC/C(C)=C/C=C(\C)C(=O)c1c(O)cc([C@H](C)CC/C=C/NC(=O)OC)oc1=O` [MYXOPYRONIN B] as the compound, how does the MIC [9] read?
Its MIC is 0.5 µg/mL (≈ 1.16 µM).

What about the MIC [11] of the same compound?
The MIC was over 25 µg/mL.

And the IC50 ([5]; read-out: IC50)?
The IC50 was 0.35 µM.

And the MIC [12]?
The MIC was over 25 µg/mL.

What about the MIC [13] of the same compound?
The MIC was 0.9 µg/mL (≈ 2.09 µM).

What about the MIC [1] of the same compound?
The MIC was 1 µg/mL (≈ 2.32 µM).

With `O=C(Nc1ccc(Br)cc1C(=O)O)c1ccc(-c2ccccc2)cc1` as the compound, how does the IC50 ([5]; read-out: IC50) read?
The IC50 was 31 µM.

What about the MIC [1] of the same compound?
Its MIC is 3 µg/mL (≈ 7.57 µM).

With `O=C(Nc1cc([N+](=O)[O-])ccc1C(=O)O)c1ccc(-c2ccccc2)cc1` as the compound, how does the IC50 ([5]; read-out: IC50) read?
The IC50 was 36 µM.

And the MIC [1]?
The MIC was over 25 µg/mL.
